Patent US9994594B2, “Inhibitors of arginase and their therapeutic applications” (MARS, INCORPORATED, priority 2010, dated 2018)
pIC50: −log10 of the molar value. Counter-ions that a name gives are not always drawn. Like-named read-outs stand apart in the source and are kept apart here.

Legend:
arginase II (ARG II) = target: T1, arginase II (ARG II) (Homo sapiens, UniProt P78540); test: Inhibition of arginase II, spectrophotometric urea assay at 530 nm; assay type: biochemical
T1 sequence (P78540 23-354): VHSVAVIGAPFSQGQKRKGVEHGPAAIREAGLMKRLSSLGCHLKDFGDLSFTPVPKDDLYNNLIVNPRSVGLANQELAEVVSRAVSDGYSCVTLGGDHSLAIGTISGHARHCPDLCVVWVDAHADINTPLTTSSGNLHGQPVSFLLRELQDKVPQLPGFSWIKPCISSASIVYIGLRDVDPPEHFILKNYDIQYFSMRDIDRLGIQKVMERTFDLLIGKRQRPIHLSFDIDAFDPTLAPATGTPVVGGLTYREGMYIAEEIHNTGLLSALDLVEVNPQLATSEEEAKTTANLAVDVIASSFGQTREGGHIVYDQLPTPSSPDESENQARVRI
Procedure, shortened: (§1)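 IC50 was derived by regression of OD530 normalized to uninhibited-enzyme controls against log concentration. Urea from 60-min, 37 °C turnover of L-arginine with manganese sulfate was detected after acid o-phthaldialdehyde/primaquine quench and 10 min colour development. Arginase I and II came from 100 ng/ml stocks in pH 7.4 phosphate with ovalbumin.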

human arginase I (ARG I) = target: T2, human arginase I (ARG I) (Homo sapiens, UniProt P05089); test: Inhibition of arginase I, spectrophotometric urea assay at 530 nm; assay type: biochemical; details: read-out: Potency (ARG I)
T2 sequence (P05089 1-322): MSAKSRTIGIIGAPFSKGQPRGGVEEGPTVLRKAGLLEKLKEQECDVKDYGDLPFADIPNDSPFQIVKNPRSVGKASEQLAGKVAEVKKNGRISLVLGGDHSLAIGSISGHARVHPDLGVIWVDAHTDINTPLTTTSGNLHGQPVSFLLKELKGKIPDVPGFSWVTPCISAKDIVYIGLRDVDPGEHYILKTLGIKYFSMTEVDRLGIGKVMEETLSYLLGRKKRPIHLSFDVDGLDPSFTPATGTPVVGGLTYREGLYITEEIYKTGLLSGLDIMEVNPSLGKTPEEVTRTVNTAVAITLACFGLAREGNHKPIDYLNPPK
Procedure, shortened: as §1

[1] = Formula II compounds, Table 2-A, read-out: Potency (ARG)
[2] = Formula II compounds, Table 2-A
[3] = Formula I compounds, Table 2, read-out: Potency (ARG II)

pIC50 (arginase II (ARG II); [1]) | pIC50 (human arginase I (ARG I); [2]) | pIC50 (arginase II (ARG II); [3]) | pIC50 (human arginase I (ARG I); Formula I compounds, Table 2) | Compound
6.60 to 10.00 | 6.60 to 10.00 | – | – | NC(CCCCB(O)O)(C(=O)O)[C@H]1C[C@@H](N)C1 (stereo partly drawn) [Example 81-A, cis-2-amino-2-(3-aminocyclobutyl)-6-boronohexanoic acid dihydrochloride]
5.30 to 5.70 | 5.70 to 6.00 | – | – | NC(CCCCB(O)O)(C(=O)O)C1CCN(C(=O)NCc2ccc(Cl)cc2)CC1 (centres unmarked) [31-A, 2-amino-6-borono-2-{1-[(4-chlorobenzyl)carbamoyl]-piperidin-4-yl}hexanoic acid hydrochloride]
6.60 to 10.00 | 6.60 to 10.00 | – | – | NC(CCCCB(O)O)(C(=O)O)[C@H]1C[C@@H](NCc2ccc(-c3ccccc3)cc2)C1 (stereo partly drawn) [Example 77-A, cis-2-amino-2-(3-(biphenyl-4-ylmethylamino)cyclobutyl)-6-boronohexanoic acid dihydrochloride]
– | – | < 5.30 | < 5.30 | NC(CCCCB(O)O)(CC(=O)O)C(=O)O (centres unmarked) [compound 106, 2-amino-2-(4-boronobutyl)succinic acid hydrochloride]
< 5.30 | < 5.30 | – | – | NC(CCCCB(O)O)(C(=O)O)[C@H]1CC[C@@H](C(=O)c2ccc(Cl)cc2)CC1 (stereo partly drawn) [Example 84-A, cis-2-Amino-6-borono-2-[4-(4-Chlorobenzoyl)-cyclohexyl]hexanoic acid hydrochloride]
– | – | 6.60 to 10.00 | 6.60 to 10.00 | NC(CCCCB(O)O)(CCNCCCc1cc(C(F)(F)F)ccc1Cl)C(=O)O (centres unmarked) [compound 64, 2-amino-6-borono-2-(2-(3-(2-chloro-5-(trifluoromethyl)phenyl)propylamino)ethyl)hexanoic acid dihydrochloride]
6.00 to 6.60 | 6.60 to 10.00 | – | – | NC(CCCCB(O)O)(C(=O)O)C1CCN(Cc2ccc(F)c3ccccc23)CC1 (centres unmarked) [Example 51-A, 2-amino-6-borono-2-(1-((4-fluoronaphthalen-1-yl)methyl)piperidin-4-yl)hexanoic acid]
– | – | 6.00 to 6.60 | 6.60 to 10.00 | N[C@](CCCCB(O)O)(CCN1CCC[C@H]1CO)C(=O)O [compound 10, (R)-2-amino-6-borono-2-(2-((S)-2-(hydroxymethyl)pyrrolidin-1-yl)ethyl)hexanoic acid]
– | – | 6.00 to 6.60 | 6.60 to 10.00 | NC(CCCCB(O)O)(C(=O)O)C(O)C1CNC1 (centres unmarked) [compound 113, 2-amino-2-(azetidin-3-yl(hydroxy)methyl)-6-boronohexanoic acid dihydrochloride]
– | – | 6.00 to 6.60 | 6.00 to 6.60 | N[C@](CCCCB(O)O)(CCN1Cc2ccccc2C[C@H]1CO)C(=O)O [compound 1, (R)-2-amino-6-borono-2-(2-((S)-3-(hydroxymethyl)-3,4-dihydroisoquinolin-2(1H)-yl)ethyl)hexanoic acid dihydrochloride]
– | – | 6.00 to 6.60 | 6.00 to 6.60 | NC(CCCCB(O)O)(CCN1CCC(Cc2ccc(F)cc2)CC1)C(=O)O (centres unmarked) [compound 127, 2-amino-6-borono-2-(2-(4-(4-fluorobenzyl)piperidin-1-yl)ethyl)hexanoic acid dihydrochloride]
– | – | 5.70 to 6.00 | 6.00 to 6.60 | CC1(C)CCN(CCC(N)(CCCCB(O)O)C(=O)O)CC1 (centres unmarked) [compound 128, 2-amino-6-borono-2-(2-(4,4-dimethylpiperidin-1-yl)ethyl)hexanoic acid dihydrochloride]

The next lines start with the compound.

Compound | pIC50 (arginase II (ARG II); [1]) | pIC50 (human arginase I (ARG I); [2]) | pIC50 (arginase II (ARG II); [3]) | pIC50 (human arginase I (ARG I); Formula I compounds, Table 2)
NC(CCCCB(O)O)(C(=O)O)C1CCN(c2ccc(C(F)(F)F)cn2)CC1 (centres unmarked) [1-A, 2-amino-6-borono-2-(5′Trifluoromethyl-3,4,5,6-tetrahydro-2H-[1,2′]bipyridinyl-4-yl)-hexanoic acid hydrochloride] | 5.70 to 6.00 | 6.00 to 6.60 | – | –
CNC(CCCCB(O)O)(CCCNCc1ccc(Cl)cc1)C(=O)O (centres unmarked) [compound 139, 6-borono-2-(3-(4-chlorobenzylamino)propyl)-2-(methylamino)hexanoic acid dihydrochloride] | – | – | 6.60 to 10.00 | 6.60 to 10.00
Cc1ccc(CN2CC[C@@H](C(N)(CCCCB(O)O)C(=O)O)C2)cc1 (stereo partly drawn) [Example 39-A, 2-Amino-6-borono-2-((R)-1-(4-methylbenzyl)pyrrolidin-3-yl)hexanoic acid dihydrochloride] | 6.00 to 6.60 | 6.00 to 6.60 | – | –
Cc1cc2c(F)ccc(C)c2nc1N1CCC(C(N)(CCCCB(O)O)C(=O)O)CC1 (centres unmarked) [5-A, 2-amino-6-borono-2-(1-(5-fluoro-3,8-dimethylquinolin-2-yl)piperidin-4-yl)hexanoic acid dihydrochloride] | 6.00 to 6.60 | 5.70 to 6.00 | – | –
NC(CCCCB(O)O)(C(=O)O)C1CCN(C(=O)c2ccc(Cl)cc2)CC1 (centres unmarked) [26-A, 2-amino-6-borono-2-[1-(4-chlorobenzoyl)piperidin-4-yl]hexanoic acid hydrochloride] | 5.30 to 5.70 | 5.30 to 5.70 | – | –
NC(CCCCB(O)O)(C(=O)O)[C@@H]1CCN(Cc2ccc(F)cc2)C1 (mixture of isomers) [37-A, 2-amino-6-borono-2-((R)-1-(4-fluorobenzyl)pyrrolidin-3-yl)hexanoic acid] | 5.70 to 6.00 | 6.00 to 6.60 | – | –
CCN(CC)CCC(N)(CCCCB(O)O)C(=O)O (centres unmarked) [compound 37, 2-amino-6-borono-2-(2-(diethylamino)ethyl)hexanoic acid dihydrochloride] | – | – | 5.70 to 6.00 | 6.00 to 6.60
NC(CCCCB(O)O)(C(=O)O)C1CCN(C2CCCCC2)CC1 (centres unmarked) [23-A, 2-amino-6-borono-2-(1-cyclohexylpiperidin-4-yl)hexanoic acid dihydrochloride] | 6.00 to 6.60 | 6.00 to 6.60 | – | –
CC(C)CN1Cc2ccccc2CC1CCC(N)(CCCCB(O)O)C(=O)O (centres unmarked) [compound 135, 2-amino-6-borono-2-(2-(2-isobutyl-1,2,3,4-tetrahydroisoquinolin-3-yl)ethyl)hexanoic acid dihydrochloride] | – | – | 6.00 to 6.60 | 6.60 to 10.00
CCCC1CCN(CCC(N)(CCCCB(O)O)C(=O)O)CC1 (centres unmarked) [compound 129, 2-amino-6-borono-2-(2-(4-propylpiperidin-1-yl)ethyl)hexanoic acid dihydrochloride] | – | – | 5.70 to 6.00 | 6.00 to 6.60
NC(CCCCB(O)O)(CCOc1ccc(Cl)cc1)C(=O)O (centres unmarked) [compound 92, 2-amino-6-borono-2-(2-(4-chlorophenoxy)ethyl)hexanoic acid hydrochloride] | – | – | < 5.30 | < 5.30
NC(CCCCB(O)O)(C(=O)O)C1CCN(Cc2ccc(OC(F)(F)F)cc2)CC1 (centres unmarked) [Example 100-A, 2-amino-6-borono-2-(1-(4-(trifluoromethoxy)benzyl)piperidin-4-yl)hexanoic acid dihydrochloride] | 6.60 to 10.00 | 6.60 to 10.00 | – | –
NC(CCCCB(O)O)(CCCNCc1ccc(Cl)c(Cl)c1)C(=O)O (centres unmarked) [compound 141, 2-amino-6-borono-2-(3-(3,4-dichlorobenzylamino)propyl)hexanoic acid dihydrochloride] | – | – | 6.60 to 10.00 | 6.60 to 10.00
NC(CCCCB(O)O)(CCN1CCC(O)(Cc2ccccc2)CC1)C(=O)O (centres unmarked) [compound 34, 2-amino-2-(2-(4-benzyl-4-hydroxypiperidin-1-yl)ethyl)-6-boronohexanoic acid dihydrochloride] | – | – | 5.70 to 6.00 | 6.00 to 6.60
CCCCNCC(N)(CCCCB(O)O)C(=O)O (centres unmarked) [compound 86, 2-amino-6-borono-2-((butylamino)methyl)hexanoic acid dihydrochloride] | – | – | 5.30 to 5.70 | 5.30 to 5.70
NC(CCCCB(O)O)(C(=O)O)C1CCCNCC1 (centres unmarked) [Example 72-A, 2-amino-2-(azepan-4-yl)-6-boronohexanoic acid dihydrochloride] | 6.00 to 6.60 | 6.60 to 10.00 | – | –
